Reference: patent US20250066369A1, “BICYCLIC PHTHALAZIN-1(2H)-ONE DERIVATIVES AND RELATED USES” (NodThera Limited, priority 2022, published 2025)
pIC50: −log10 of the molar value.

Tested on: IL-1β release upon NLRP3 activation in peripheral blood mononuclear cells (PBMC)
Test: PBMC IC50 determination assay: inhibition of IL-1β release upon NLRP3 activation
Type: cell-based
Settings: PBMC primed with LPS 3 h, compound 30 min, stimulated with ATP (5 mM) or nigericin (10 μM) 1 h, IL-1β by ELISA (Protocol A) or HTRF (Protocol B)
Summary of the method: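 Human PBMC from buffy coats were primed 3 h with LPS (1 μg/mL in Protocol B), given compound for 30 min, then stimulated 1 h with ATP (5 mM) or nigericin (10 μM; Protocol A only). Released IL-1β was quantified by ELISA at 450 nm (Protocol A) or HTRF at […] (Protocol B).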

Compound: COCCNc1cc2c(C(C)C)nn(CC(=O)Nc3ncccn3)c(=O)c2s1 [Compound 96, 2-{2-[(2-Methoxyethyl)amino]-7-oxo-4-(propan-2-yl)-6H,7H-thieno[2,3-d]pyridazin-6-yl}-N-(pyrimidin-2-yl)acetamide]
- pIC50 (PBMC): 4.30 to 5.00

Compound: CC(C)c1nn(CC(=O)Nc2ncccn2)c(=O)c2sc(Br)cc12 [Compound 64, 2-(2-Bromo-4-isopropyl-7-oxothieno[2,3-d]pyridazin-6(7H)-yl)-N-(pyrimidin-2-yl)acetamide]
- pIC50 (PBMC): 6.00 to 7.00

Compound: CNc1cc2c(C(C)C)nn(CC(=O)Nc3ncccn3)c(=O)c2s1 [Compound 94, 2-[2-(Methylamino)-7-oxo-4-(propan-2-yl)-6H,7H-thieno[2,3-d]pyridazin-6-yl]-N-(pyrimidin-2-yl)acetamide]
- pIC50 (PBMC): ≥ 7.00

Compound: CC(C)c1nn(CC(=O)Nc2ncccn2)c(=O)c2ccc(C3CC3)nc12 [Compound 27, 2-(2-Cyclopropyl-8-isopropyl-5-oxo-pyrido [2,3-d]pyridazin-6-yl)-N-pyrimidin-2-yl-acetamide]
- pIC50 (PBMC): 6.00 to 7.00

Compound: Cc1cnc(NC(=O)Cn2nc(C)c3oc(C4CC4)cc3c2=O)nc1 [Compound 83, 2-{2-Cyclopropyl-7-methyl-4-oxo-4H,5H-furo[2,3-d]pyridazin-5-yl}-N-(5-methylpyrimidin-2-yl)acetamide]
- pIC50 (PBMC): 6.00 to 7.00

Compound: CC(C)c1nn(C2(C(=O)Nc3ncccn3)CC2)c(=O)c2cn(C3CC3)nc12 [Compound 70, 1-(2-Cyclopropyl-7-isopropyl-4-oxo-2,4-dihydro-5H-pyrazolo[3,4-d]pyridazin-5-yl)-N-(pyrimidin-2-yl)cyclopropane-1-carboxamide]
- pIC50: 4.30 to 5.00

Compound: CC(C)c1nn(C2(C(=O)Nc3ncccn3)CC2)c(=O)c2cn(C(C)C)nc12 [Compound 50, 1-(2,7-Diisopropyl-4-oxo-2,4-dihydro-5H-pyrazolo[3,4-d]pyridazin-5-yl)-N-(pyrimidin-2-yl)cyclopropane-1-carboxamide]
- pIC50 (PBMC): 5.52 to 6.00

Compound: CC(C)c1nn(CC(=O)Nc2ncccn2)c(=O)c2cn(C3CC3)nc12 [Compound 65, 2-(2-Cyclopropyl-7-isopropyl-4-oxo-2,4-dihydro-5H-pyrazolo[3,4-d]pyridazin-5-yl)-N-(pyrimidin-2-yl)acetamide]
- pIC50 (PBMC): 6.00 to 7.00

Compound: CC(C)c1nn(CC(=O)Nc2ncccn2)c(=O)c2cc(Br)oc12 [Compound 62, 2-(2-Bromo-7-isopropyl-4-oxofuro[2,3-d]pyridazin-5(4H)-yl)-N-(pyrimidin-2-yl)acetamide]
- pIC50 (PBMC): 6.00 to 7.00

Compound: CC(C)c1nn(CC(=O)N[C@@H]2CCCN(C3CCC3)C2)c(=O)c2sc(C#N)cc12 [Compound 30, 2-(2-Cyano-4-isopropyl-7-oxo-thieno[2,3-d]pyridazin-6-yl)-N-[(3R)-1-cyclobutyl-3-piperidyl]acetamide]
- pIC50 (PBMC): 5.00 to 5.52

Compound: CC(C)c1nn(CC(=O)Nc2ncccn2)c(=O)c2cn(C3CCC3)nc12 [Compound 71, 2-(2-Cyclobutyl-7-isopropyl-4-oxo-2,4-dihydro-5H-pyrazolo[3,4-d]pyridazin-5-yl)-N-(pyrimidin-2-yl)acetamide]
- pIC50 (PBMC): 5.52 to 6.00

Compound: CCc1nn(CC(=O)Nc2ncco2)c(=O)c2sc(NC)cc12 [Compound 115, 2-[4-Ethyl-2-(methylamino)-7-oxo-6H,7H-thieno[2,3-d]pyridazin-6-yl]-N-(1,3-oxazol-2-yl)acetamide]
- pIC50 (PBMC): 6.00 to 7.00

Compound: CC(C)c1nn(CC(=O)N[C@H]2C[C@@](C)(O)C2)c(=O)c2sc(Br)cc12 [Compound 74, 2-(2-Bromo-4-isopropyl-7-oxothieno[2,3-d]pyridazin-6(7H)-yl)-N-(cis-3-hydroxy-3-methylcyclobutyl)acetamide]
- pIC50 (PBMC): 5.52 to 6.00

Compound: CCc1cc2c(=O)n(CC(=O)Nc3ncc(F)cn3)nc(C(C)C)c2s1 [Compound 12, 2-(2-Ethyl-7-isopropyl-4-oxo-thieno[2,3-d]pyridazin-5-yl)-N-(5-fluoropyrimidin-2-yl)acetamide]
- pIC50 (PBMC): 6.00 to 7.00

Compound: Cc1nn(CC(=O)Nc2ncccn2)c(=O)c2cc(C3CC3)oc12 [Compound 82, 2-{2-Cyclopropyl-7-methyl-4-oxo-4H,5H-furo[2,3-d]pyridazin-5-yl}-N-(pyrimidin-2-yl)acetamide]
- pIC50 (PBMC): 6.00 to 7.00

Compound: CCOC(=O)c1cnc(NC(=O)Cn2nc(C)c3oc(C4CC4)cc3c2=O)nc1 [Compound 90, Ethyl 2-(2-{2-cyclopropyl-7-methyl-4-oxo-4H,5H-furo[2,3-d]pyridazin-5-yl}acetamido)pyrimidine-5-carboxylate]
- pIC50 (PBMC): 6.00 to 7.00

Compound: Cc1nn(CC(=O)N[C@H]2C[C@@](C)(O)C2)c(=O)c2cc(C3CC3)oc12 [Compound 85, 2-{2-Cyclopropyl-7-methyl-4-oxo-4H,5H-furo[2,3-d]pyridazin-5-yl}-N-[cis-3-hydroxy-3-methylcyclobutyl]acetamide]
- pIC50 (PBMC): 5.52 to 6.00

Compound: CCNc1cc2c(C(C)C)nn(CC(=O)Nc3ncccn3)c(=O)c2s1 [Compound 78, 2-(2-(Ethylamino)-4-isopropyl-7-oxothieno[2,3-d]pyridazin-6(7H)-yl)-N-(pyrimidin-2-yl)acetamide]
- pIC50 (PBMC): ≥ 7.00

Compound: CCn1cc2c(=O)n(CC(=O)Nc3ncncc3F)nc(C(C)C)c2n1 [Compound 5, 2-(2-Ethyl-7-isopropyl-4-oxo-pyrazolo[3,4-d]pyridazin-5-yl)-N-(5-fluoropyrimidin-4-yl) acetamide]
- pIC50 (PBMC): 5.52 to 6.00

Compound: CCc1cc2c(C(C)C)nn(CC(=O)Nc3ncc(F)cn3)c(=O)c2s1 [Compound 24, 2-(2-Ethyl-4-isopropyl-7-oxo-thieno[2,3-d]pyridazin-6-yl)-N-(5-fluoropyrimidin-2-yl) acetamide]
- pIC50 (PBMC): ≥ 7.00

Compound: CC(C)c1nn(CC(=O)Nc2ncc(F)cn2)c(=O)c2sc(Cl)cc12 [Compound 60, 2-(2-Chloro-4-isopropyl-7-oxothieno[2,3-d]pyridazin-6(7H)-yl)-N-(5-fluoropyrimidin-2-yl)acetamide]
- pIC50 (PBMC): 6.00 to 7.00

Compound: CC(C)c1nn(CC(=O)N[C@@H]2CCCN(C3CC3)C2)c(=O)c2nn(C)cc12 [Compound 9, N-[(3R)-1-Cyclopropyl-3-piperidyl]-2-(4-isopropyl-2-methyl-7-oxo-pyrazolo[3,4-d]pyridazin-6-yl)acetamide]
- pIC50 (PBMC): 4.30 to 5.00

Compound: CC(C)c1nn(CC(=O)N[C@@H]2CCCN(C3CC3)C2)c(=O)c2c1cnn2C [Compound 1, N-[(3R)-1-Cyclopropyl-3-piperidyl]-2-(4-isopropyl-1-methyl-7-oxo-pyrazolo[3,4-d]pyridazin-6-yl)acetamide]
- pIC50 (PBMC): 5.00 to 5.52

Compound: C=C(C)c1nn(CC(=O)N[C@@H]2CCCN(C3CC3)C2)c(=O)c2ncn(C)c12 [Compound 13, N-[(3R)-1-Cyclopropyl-3-piperidyl]-2-(7-isopropenyl-1-methyl-4-oxo-imidazo[4,5-d]pyridazin-5-yl)acetamide]
- pIC50 (PBMC): 4.30 to 5.00

Compound: CCNc1cc2c(=O)n(CC(=O)Nc3ncccn3)nc(C(C)C)c2o1 [Compound 102, 2-[2-(Ethylamino)-4-oxo-7-(propan-2-yl)-4H,5H-furo[2,3-d]pyridazin-5-yl]-N-(pyrimidin-2-yl)acetamide]
- pIC50 (PBMC): 6.00 to 7.00

Compound: CCOC(=O)c1cnc(NC(=O)Cn2nc(C(C)C)c3oc(C4CC4)cc3c2=O)nc1 [Compound 80, Ethyl 2-(2-(2-cyclopropyl-7-isopropyl-4-oxofuro[2,3-d]pyridazin-5(4H)-yl)acetamido)pyrimidine-5-carboxylate]
- pIC50 (PBMC): 6.00 to 7.00

Compound: CCc1nn(CC(=O)Nc2ncccn2)c(=O)c2sc(NC)cc12 [Compound 114, 2-[4-ethyl-2-(methylamino)-7-oxo-6H,7H-thieno[2,3-d]pyridazin-6-yl]-N-(pyrimidin-2-yl)acetamide]
- pIC50 (PBMC): 6.00 to 7.00

Compound: CCc1cc2c(=O)n(CC(=O)Nc3ncc(F)cn3)nc(C(C)C)c2o1 [Compound 23, 2-(2-Ethyl-7-isopropyl-4-oxo-furo [2,3-d]pyridazin-5-yl)-N-(5-fluoropyrimidin-2-yl) acetamide]
- pIC50 (PBMC): 6.00 to 7.00

Compound: Cc1nn(CC(=O)Nc2ccc3nncn3n2)c(=O)c2cc(C3CC3)oc12 [Compound 106, 2-{2-Cyclopropyl-7-methyl-4-oxo-4H,5H-furo[2,3-d]pyridazin-5-yl}-N-{[1,2,4]triazolo[4,3-b]pyridazin-6-yl}acetamide]
- pIC50 (PBMC): 6.00 to 7.00

Compound: CCc1nn(CC(=O)Nc2ncccn2)c(=O)c2cn(CC)nc12 [Compound 21, 2-(2,7-Diethyl-4-oxo-pyrazolo[3,4-d]pyridazin-5-yl)-N-pyrimidin-2-yl-acetamide]
- pIC50 (PBMC): 4.30 to 5.00
